Source: patent publication US10350187B2, “Methods and composition for suppression of pathogenic bacterial growth, fungal growth, or microbial growth in or on skin” (priority 2017, dated 2019)

Assays:
[1] = test system: M. restricta MYA-4611; assay: M. restricta growth in liquid MLNB media (Example 3); assay type: cell-based
Method: (§1) At appropriate time intervals (0 h, 24 h, 48 h, 72 h, and 168 h) 1 mL aliquots of the cell suspension were withdrawn and plated on MLNA. All the experiments were performed in duplicate.

[2] = test system: M. restricta MYA-4611; assay: M. restricta growth on solid media with composition and individual component supplementation (Example 3); details: individual component supplementation, after 5 days
[3] = test system: M. globosa; assay: M. globosa growth on solid media with composition and individual component supplementation (Example 3); details: individual component supplementation, after 5 days
[4] = test system: M. globosa; assay: M. globosa growth in liquid MLNB media (Example 3); assay type: cell-based
Method: as §1

N[C@@H](CC(=O)O)C(=O)O [L-Asp, L-aspartic acid]
M. restricta growth in liquid MLNB media ([1]; 0.46% L-Asp, t = 24 h): 15 cfu/mL
M. restricta growth in liquid MLNB media ([1]; 0.46% L-Asp, t = 48 h): 11 cfu/mL
M. restricta growth in liquid MLNB media ([1]; 0.46% L-Asp, t = 72 h): 10 cfu/mL
M. restricta growth in liquid MLNB media ([1]; 0.46% L-Asp, t = 168 h): 14 cfu/mL
growth on solid media ([2]; 0.46% L-Asp): support some growth
growth on solid media ([3]; 0.46% L-Asp): support some growth
M. globosa growth in liquid MLNB media ([4]; 0.46% L-Asp, t = 24 h): 14 cfu/mL
M. globosa growth in liquid MLNB media ([4]; 0.46% L-Asp, t = 48 h): 10 cfu/mL
M. globosa growth in liquid MLNB media ([4]; 0.46% L-Asp, t = 72 h): 6 cfu/mL
M. globosa growth in liquid MLNB media ([4]; 0.46% L-Asp, t = 168 h): 1 cfu/mL

conjugated linoleic acid [CLA]
M. restricta growth in liquid MLNB media ([1]; 1.5% CLA, t = 24 h): 7 cfu/mL
M. restricta growth in liquid MLNB media ([1]; 1.5% CLA, t = 48 h): 0 cfu/mL
M. restricta growth in liquid MLNB media ([1]; 1.5% CLA, t = 72 h): 0 cfu/mL
M. restricta growth in liquid MLNB media ([1]; 1.5% CLA, t = 168 h): 0 cfu/mL
growth on solid media ([2]; 1.5% CLA): support some growth
growth on solid media ([3]; 1.5% CLA): support some growth
M. globosa growth in liquid MLNB media ([4]; 1.5% CLA, t = 24 h): 2 cfu/mL
M. globosa growth in liquid MLNB media ([4]; 1.5% CLA, t = 48 h): 0 cfu/mL
M. globosa growth in liquid MLNB media ([4]; 1.5% CLA, t = 72 h): 0 cfu/mL
M. globosa growth in liquid MLNB media ([4]; 1.5% CLA, t = 168 h): 0 cfu/mL

NC(=O)c1cccnc1 [Niacinamide, niacinamide, reference compound]
M. restricta growth in liquid MLNB media ([1]; 0.5% Niacinamide, t = 24 h): 20 cfu/mL
M. restricta growth in liquid MLNB media ([1]; 0.5% Niacinamide, t = 48 h): 5 cfu/mL
M. restricta growth in liquid MLNB media ([1]; 0.5% Niacinamide, t = 72 h): 0 cfu/mL
M. restricta growth in liquid MLNB media ([1]; 0.5% Niacinamide, t = 168 h): 0 cfu/mL
growth on solid media ([2]; 0.5% niacinamide): support some growth
growth on solid media ([3]; 0.5% niacinamide): support some growth
M. globosa growth in liquid MLNB media ([4]; 0.5% Niacinamide, t = 24 h): 2 cfu/mL
M. globosa growth in liquid MLNB media ([4]; 0.5% Niacinamide, t = 48 h): 0 cfu/mL
M. globosa growth in liquid MLNB media ([4]; 0.5% Niacinamide, t = 72 h): 0 cfu/mL
M. globosa growth in liquid MLNB media ([4]; 0.5% Niacinamide, t = 168 h): 0 cfu/mL
